The source made the active and inactive calls.
Columns and labels:
[1] = biological target: 26S proteasome non-ATPase regulatory subunit 14 (Homo sapiens, UniProt O00487); test: inhibition of proteasome subunit RPN11 – biochemical, fluorescence polarization, uHTS hits, confirmation (AID 602368); assay type: functional
[2] = biological target: 72 kDa type IV collagenase (Homo sapiens, UniProt P08253); test: Dose Response validation of uHTS RPN11 inhibitor hits using a MMP-2 Fluorescence assay.; assay type: functional
[3] = biological target: Prothrombin (Bos taurus, UniProt P00735); test: thrombin protease inhibitors – biochemical, fluorescence polarization, uHTS hits, dose response (AID 602369); assay type: functional
[4] = biological target: Serine/threonine-protein kinase 17A (Homo sapiens, UniProt Q9UEE5); assay type: functional
[5] = biological target: Aurora kinase B (Homo sapiens, UniProt Q96GD4); assay type: functional
[6] = biological target: T1, High affinity choline transporter 1 (Homo sapiens, UniProt Q9GZV3); test: human choline transporter blockers, potency – cell-based, 10-point CRC, membrane potential dye, dose response (AID 588401); assay type: functional;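 note: membrane potential dye fluorescence of choline-evoked depolarization via CHT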
T1 sequence (Q9GZV3 whole entry): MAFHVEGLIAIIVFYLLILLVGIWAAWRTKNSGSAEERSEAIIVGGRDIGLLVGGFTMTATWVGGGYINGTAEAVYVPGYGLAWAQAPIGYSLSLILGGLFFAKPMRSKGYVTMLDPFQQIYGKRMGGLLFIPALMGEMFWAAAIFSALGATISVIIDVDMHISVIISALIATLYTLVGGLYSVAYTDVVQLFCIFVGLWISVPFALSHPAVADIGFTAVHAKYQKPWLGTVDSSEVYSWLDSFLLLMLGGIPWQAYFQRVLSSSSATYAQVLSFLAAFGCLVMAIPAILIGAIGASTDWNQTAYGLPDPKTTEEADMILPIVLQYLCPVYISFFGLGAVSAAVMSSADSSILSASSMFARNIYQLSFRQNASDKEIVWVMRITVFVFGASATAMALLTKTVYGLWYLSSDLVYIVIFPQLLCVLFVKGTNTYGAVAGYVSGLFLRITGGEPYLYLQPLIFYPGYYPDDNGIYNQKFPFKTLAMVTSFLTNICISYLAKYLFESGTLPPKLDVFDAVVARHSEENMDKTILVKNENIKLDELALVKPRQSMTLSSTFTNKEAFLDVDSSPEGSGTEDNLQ

[7] = biological target: Aspartyl aminopeptidase (Plasmodium falciparum 3D7, UniProt Q8I2J3)
[8] = tested on: SN12K1; test: cells; assay type: functional; conditions: Homo sapiens
[9] = biological target: Procathepsin L (Homo sapiens, UniProt P07711)
[10] = biological target: T1, High affinity choline transporter 1; test: human choline transporter blockers, potency – cell-based, 5-point CRC, membrane potential dye, dose response (AID 504840); assay type: functional
[11] = tested on: P388/ADR; test: cells; assay type: functional; conditions: Mus musculus
[12] = tested on: P388; test: cells; assay type: functional; conditions: Mus musculus
[13] = tested on: H4; test: inhibitors of control reporter signal in H4 cells – cell-based, plate reader, dry powder samples, counter-screen for prion reporter project, dose response (AID 540255); assay type: functional; conditions: Homo sapiens
[14] = biological target: Luciferin 4-monooxygenase (Photinus pyralis, UniProt P08659); test: inhibition of purified Photinus pyralis luciferase – biochemical, dry powder samples, plate reader, dose response (AID 588451)
[15] = biological target: T2, Microphthalmia-associated transcription factor (Homo sapiens, UniProt O75030); test: reducers of TRPM1 reporter luminescence, concentration series – cell-based, SK-MEL-5, cherry-picked, set 3, MITF inhibitor project, dose response (AID 493073); assay type: functional;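 note: SK-MEL-5 melanoma cells with luciferase driven by the MITF target TRPM1 promoter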
T2 sequence (O75030 whole entry): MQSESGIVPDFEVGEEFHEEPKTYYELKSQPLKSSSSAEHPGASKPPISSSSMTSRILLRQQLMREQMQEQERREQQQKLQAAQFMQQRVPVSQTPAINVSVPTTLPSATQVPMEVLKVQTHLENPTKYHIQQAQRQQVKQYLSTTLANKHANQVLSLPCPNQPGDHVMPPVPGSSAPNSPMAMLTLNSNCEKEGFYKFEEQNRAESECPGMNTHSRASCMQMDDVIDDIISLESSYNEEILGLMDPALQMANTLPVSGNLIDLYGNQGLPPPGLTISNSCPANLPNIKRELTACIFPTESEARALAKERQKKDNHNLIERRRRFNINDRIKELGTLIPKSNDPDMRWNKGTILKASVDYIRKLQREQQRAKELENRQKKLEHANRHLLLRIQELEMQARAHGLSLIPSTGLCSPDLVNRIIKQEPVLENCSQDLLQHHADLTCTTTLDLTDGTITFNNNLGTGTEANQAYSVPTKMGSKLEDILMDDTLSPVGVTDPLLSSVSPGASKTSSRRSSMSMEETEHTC

[16] = tested on: H4; test: Inhibitors of Prion Protein 5' UTR mRNA Measured in Cell-Based System Using Plate Reader - 2078-01_Inhibitor_Dose_DryPowder_Activity. [Related pubchem assays (depositor defined):AID488894]; assay type: functional; conditions: Homo sapiens
[17] = reduction of Shn3 3'UTR-driven luciferase in osteoblasts – cell-based, Clone20 osteoblasts, firefly luciferase, cherry-picked, dose response (AID 624132); assay type: functional;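 note: firefly luciferase luminescence from reporter carrying the Shn3 3'UTR in osteoblasts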
[18] = HEK-293T viability loss after treatment – luminescence, T-cell screen hits, cytotoxicity control for TCR NF-kB inhibitor project, dose response (AID 489026); assay type: functional, cell-based;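 note: cells exposed to compound about 14 hours before the viability readout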
[19] = biological target: T3, Heat shock factor protein 1 (Mus musculus, UniProt P38532); test: decrease of HSF1-responsive luciferase luminescence – cell-based, NIH3T3, dose retest, confirmation (AID 2382); assay type: functional;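 note: NIH3T3 fibroblasts with HSF1-driven luciferase reporter stressed by proteasome inhibitor MG132; luminescence from HSF1-driven luciferase expression after 8 hours of MG132 stress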
T3 sequence (P38532 whole entry): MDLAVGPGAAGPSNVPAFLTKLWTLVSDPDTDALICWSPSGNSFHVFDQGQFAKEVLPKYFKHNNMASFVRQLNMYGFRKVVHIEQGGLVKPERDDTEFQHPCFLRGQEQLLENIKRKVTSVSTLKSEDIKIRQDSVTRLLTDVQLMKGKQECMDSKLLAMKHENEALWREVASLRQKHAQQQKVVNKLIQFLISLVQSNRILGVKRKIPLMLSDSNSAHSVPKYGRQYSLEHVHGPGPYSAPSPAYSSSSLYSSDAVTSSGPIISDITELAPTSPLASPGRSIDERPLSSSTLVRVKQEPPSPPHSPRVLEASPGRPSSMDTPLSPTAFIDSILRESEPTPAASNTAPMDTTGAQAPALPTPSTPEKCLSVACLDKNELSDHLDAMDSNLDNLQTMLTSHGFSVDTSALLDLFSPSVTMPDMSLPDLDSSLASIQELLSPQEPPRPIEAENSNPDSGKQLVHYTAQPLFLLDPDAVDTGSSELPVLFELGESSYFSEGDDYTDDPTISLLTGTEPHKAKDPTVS

[20] = tested on: H4; test: Amyloid Precursor 5' UTR neuroblastoma cell reporter line Measured in Cell-Based System Using Plate Reader - 2078-04_Inhibitor_Dose_DryPowder_Activity. [Related pubchem assays (depositor defined):AID488894]; assay type: functional; conditions: Homo sapiens
[21] = biological target: T4, Orexin/Hypocretin receptor type 1 (Homo sapiens, UniProt O43613); test: (§1) Fluorescence-based cell-based high throughput dose response assay for antagonists of the orexin 1 receptor (OX1R; HCRTR1). [Related pubchem assays (depositor defined):AID434989, AID435008, AID463079, AID485270, AID492963, AID492964, AID492965, AID493232, AID504717, AID504718]; assay type: functional
[22] = biological target: T5, Orexin receptor type 2 (Homo sapiens, UniProt O43614); test: Counterscreen assay for antagonists of the orexin 1 receptor (OX1R; HCRTR1): Fluorescence-based cell-based dose response assay for antagonists of the orexin 2 receptor (OX2R; HCRTR2), run by assay provider.; assay type: functional
[23] = tested on: CHO-K1; test: (§2) Counterscreen for antagonists of the orexin 1 receptor (OX1R; HCRTR1): Homogeneous time resolved fluorescence (HTRF)-based cell-based dose response assay to identify antagonists of the parental CHO-K1 cell line. [Related pubchem assays (depositor defined):AID434989, AID435008, AID463079, AID485270, AID492963, AID492964, AID492965, AID493232, AID504699, AID504701]; assay type: functional; conditions: Cricetulus griseus
[24] = biological target: T4, Orexin/Hypocretin receptor type 1; test: as §1, with “Homogeneous Time Resolved Fluorescence (HTRF)-based” for “Fluorescence-based”; assay type: functional
[25] = biological target: T5, Orexin receptor type 2; test: Counterscreen assay for antagonists of the orexin 1 receptor (OX1R; HCRTR1): Homogeneous Time Resolved Fluorescence (HTRF)-based cell-based dose response assay for antagonists of the orexin 2 receptor (OX2R; HCRTR2), run by assay provider.; assay type: functional
[26] = as §2, with “Fluorescence-based” for “Homogeneous time resolved fluorescence (HTRF)-based”, “cell-based high throughput” for “cell-based”, “CHO” for “CHO-K1”; assay type: functional
[27] = biological target: T6, Neuropeptides B/W receptor type 1 (Homo sapiens, UniProt P48145); test: human NPBW1 receptor blockade, IC50 – cell-based, fluorescence, dose response, set 5, late-stage follow-up (AID 588566); assay type: functional
T6 sequence (P48145 whole entry): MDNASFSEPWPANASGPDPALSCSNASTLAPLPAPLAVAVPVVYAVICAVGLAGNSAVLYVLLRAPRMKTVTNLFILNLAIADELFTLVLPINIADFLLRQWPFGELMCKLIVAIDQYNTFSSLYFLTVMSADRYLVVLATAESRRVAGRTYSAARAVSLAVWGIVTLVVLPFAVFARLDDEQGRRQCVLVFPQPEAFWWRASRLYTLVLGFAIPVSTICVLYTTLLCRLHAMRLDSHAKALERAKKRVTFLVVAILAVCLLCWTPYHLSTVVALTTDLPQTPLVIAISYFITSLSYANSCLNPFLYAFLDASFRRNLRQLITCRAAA

[28] = biological target: Melanin-concentrating hormone receptor 1 (Homo sapiens, UniProt Q99705); test: Late-stage fluorescence-based counterscreen for antagonists of the G-protein coupled receptor 7 (GPR7): cell-based dose response assay to identify antagonists of the melanin-concentrating hormone receptor 1 (MCHR1) Set 5.; assay type: functional
[29] = biological target: Serine/threonine-protein kinase pim-3 (Homo sapiens, UniProt Q86V86); assay type: functional;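 note: value obtained as one member of a broad kinase panel profiling effort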
[30] = biological target: Serine/threonine-protein kinase pim-1 (Homo sapiens, UniProt P11309); assay type: functional
[31] = biological target: DNA dC->dU-editing enzyme APOBEC-3G (Homo sapiens, UniProt Q9HC16); test: inhibition of APOBEC3G ssDNA deamination – biochemical, fluorescence, single-stranded DNA substrate, SAR follow-up (AID 602136); assay type: functional; conditions: read-out: IC50_Mean
[32] = biological target: DNA dC->dU-editing enzyme APOBEC-3A (Homo sapiens, UniProt P31941); test: SAR analysis of small molecule inhibitors of APOBEC3A DNA Deaminase via a fluorescence-based single-stranded DNA deaminase assay.; assay type: functional; conditions: read-out: IC50_Mean
[33] = biological target: Cell division cycle 7-related protein kinase (Homo sapiens, UniProt O00311); assay type: functional;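 note: value obtained from a kinome-wide kinase panel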
[34] = biological target: Cyclin-dependent kinase 19 (Homo sapiens, UniProt Q9BWU1); test: Navigating the Kinome. Panel member name: CDC2L6; assay type: functional

T5 sequence (O43614 whole entry): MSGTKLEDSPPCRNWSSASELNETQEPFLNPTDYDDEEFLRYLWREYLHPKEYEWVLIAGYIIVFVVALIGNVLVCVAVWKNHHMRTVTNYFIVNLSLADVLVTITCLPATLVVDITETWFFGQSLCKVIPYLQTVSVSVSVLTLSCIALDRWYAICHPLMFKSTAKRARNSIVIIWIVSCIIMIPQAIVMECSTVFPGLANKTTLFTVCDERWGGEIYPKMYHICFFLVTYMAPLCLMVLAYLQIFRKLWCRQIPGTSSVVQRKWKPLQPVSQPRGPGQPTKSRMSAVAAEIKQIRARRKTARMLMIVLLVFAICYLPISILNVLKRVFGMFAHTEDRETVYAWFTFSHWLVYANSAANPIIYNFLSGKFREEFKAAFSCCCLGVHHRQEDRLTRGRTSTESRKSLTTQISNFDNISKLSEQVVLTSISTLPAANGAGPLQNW
T4 sequence (O43613 whole entry): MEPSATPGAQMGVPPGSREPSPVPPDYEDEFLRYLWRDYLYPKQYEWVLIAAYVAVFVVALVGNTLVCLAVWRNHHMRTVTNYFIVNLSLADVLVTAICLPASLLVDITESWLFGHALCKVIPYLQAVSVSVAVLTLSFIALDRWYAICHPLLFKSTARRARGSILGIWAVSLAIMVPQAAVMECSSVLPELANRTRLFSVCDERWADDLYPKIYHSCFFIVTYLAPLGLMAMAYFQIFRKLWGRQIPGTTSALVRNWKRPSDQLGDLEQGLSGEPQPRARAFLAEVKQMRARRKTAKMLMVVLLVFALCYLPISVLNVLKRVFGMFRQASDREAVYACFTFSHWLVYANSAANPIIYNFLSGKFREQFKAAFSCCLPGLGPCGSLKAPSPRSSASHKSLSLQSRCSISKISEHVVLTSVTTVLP
72 kDa type IV collagenase, sequence (P08253 whole entry): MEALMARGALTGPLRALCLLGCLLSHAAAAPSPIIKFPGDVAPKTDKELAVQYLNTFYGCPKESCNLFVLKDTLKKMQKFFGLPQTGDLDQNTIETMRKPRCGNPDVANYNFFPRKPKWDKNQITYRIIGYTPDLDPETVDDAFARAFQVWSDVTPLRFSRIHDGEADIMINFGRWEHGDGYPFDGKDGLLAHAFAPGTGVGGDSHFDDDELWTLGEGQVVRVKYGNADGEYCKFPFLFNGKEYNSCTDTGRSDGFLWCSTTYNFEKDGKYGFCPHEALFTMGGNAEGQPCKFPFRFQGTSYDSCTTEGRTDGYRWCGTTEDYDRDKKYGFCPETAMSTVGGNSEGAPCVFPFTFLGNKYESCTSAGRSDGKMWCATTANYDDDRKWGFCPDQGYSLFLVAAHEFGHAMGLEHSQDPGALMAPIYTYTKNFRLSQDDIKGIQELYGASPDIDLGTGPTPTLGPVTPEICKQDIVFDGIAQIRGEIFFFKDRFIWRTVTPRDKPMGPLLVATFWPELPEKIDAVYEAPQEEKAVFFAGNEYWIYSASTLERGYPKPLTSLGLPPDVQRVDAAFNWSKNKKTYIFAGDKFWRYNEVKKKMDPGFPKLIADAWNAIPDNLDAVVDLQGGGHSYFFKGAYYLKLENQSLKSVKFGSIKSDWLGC
Serine/threonine-protein kinase 17A, sequence (Q9UEE5 whole entry): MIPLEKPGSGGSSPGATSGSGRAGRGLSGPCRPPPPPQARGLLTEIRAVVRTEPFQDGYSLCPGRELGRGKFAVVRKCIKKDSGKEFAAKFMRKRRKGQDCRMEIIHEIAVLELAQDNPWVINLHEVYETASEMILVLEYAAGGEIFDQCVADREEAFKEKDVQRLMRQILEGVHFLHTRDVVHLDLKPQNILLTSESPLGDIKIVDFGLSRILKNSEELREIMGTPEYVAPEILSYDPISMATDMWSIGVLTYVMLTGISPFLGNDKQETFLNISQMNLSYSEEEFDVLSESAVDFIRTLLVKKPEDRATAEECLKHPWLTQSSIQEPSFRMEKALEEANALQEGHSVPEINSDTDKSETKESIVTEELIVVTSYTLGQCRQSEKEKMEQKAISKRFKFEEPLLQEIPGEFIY
Luciferin 4-monooxygenase, sequence (P08659 whole entry): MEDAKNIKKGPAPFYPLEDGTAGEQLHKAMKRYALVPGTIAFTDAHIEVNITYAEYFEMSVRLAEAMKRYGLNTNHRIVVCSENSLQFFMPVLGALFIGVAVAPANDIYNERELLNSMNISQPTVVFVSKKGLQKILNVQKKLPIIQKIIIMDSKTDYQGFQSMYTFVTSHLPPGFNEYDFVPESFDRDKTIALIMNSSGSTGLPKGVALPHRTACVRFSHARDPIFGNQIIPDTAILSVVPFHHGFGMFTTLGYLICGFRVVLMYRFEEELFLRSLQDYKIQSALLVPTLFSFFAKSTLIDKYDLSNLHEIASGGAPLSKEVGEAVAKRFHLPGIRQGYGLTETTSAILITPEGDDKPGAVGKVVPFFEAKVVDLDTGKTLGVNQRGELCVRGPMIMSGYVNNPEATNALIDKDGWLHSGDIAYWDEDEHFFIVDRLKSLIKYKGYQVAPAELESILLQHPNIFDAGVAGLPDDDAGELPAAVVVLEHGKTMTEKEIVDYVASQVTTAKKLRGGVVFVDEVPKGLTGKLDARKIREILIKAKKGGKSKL
Cell division cycle 7-related protein kinase, sequence (O00311 whole entry): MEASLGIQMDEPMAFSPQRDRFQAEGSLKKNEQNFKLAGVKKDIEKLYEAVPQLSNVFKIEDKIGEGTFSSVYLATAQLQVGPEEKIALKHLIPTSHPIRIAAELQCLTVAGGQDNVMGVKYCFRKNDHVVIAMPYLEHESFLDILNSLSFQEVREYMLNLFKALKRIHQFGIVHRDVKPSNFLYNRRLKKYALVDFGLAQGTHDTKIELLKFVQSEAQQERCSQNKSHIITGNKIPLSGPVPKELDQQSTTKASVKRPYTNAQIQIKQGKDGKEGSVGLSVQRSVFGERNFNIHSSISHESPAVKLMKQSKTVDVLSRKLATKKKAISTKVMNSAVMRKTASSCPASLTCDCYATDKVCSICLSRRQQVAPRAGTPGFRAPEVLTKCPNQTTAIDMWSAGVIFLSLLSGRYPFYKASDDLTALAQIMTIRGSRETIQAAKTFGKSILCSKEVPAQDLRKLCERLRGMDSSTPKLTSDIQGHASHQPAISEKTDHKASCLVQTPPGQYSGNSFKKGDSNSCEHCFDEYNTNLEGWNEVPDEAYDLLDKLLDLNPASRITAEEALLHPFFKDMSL
Serine/threonine-protein kinase pim-1, sequence (P11309 whole entry): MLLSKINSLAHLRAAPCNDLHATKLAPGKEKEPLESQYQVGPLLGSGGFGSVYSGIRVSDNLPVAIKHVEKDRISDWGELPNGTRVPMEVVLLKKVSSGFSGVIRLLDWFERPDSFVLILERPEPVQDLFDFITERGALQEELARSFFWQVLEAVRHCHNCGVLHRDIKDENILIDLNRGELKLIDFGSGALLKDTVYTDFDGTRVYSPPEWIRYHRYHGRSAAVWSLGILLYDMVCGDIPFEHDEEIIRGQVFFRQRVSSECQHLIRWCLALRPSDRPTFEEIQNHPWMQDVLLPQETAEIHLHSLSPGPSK
Procathepsin L, sequence (P07711 whole entry): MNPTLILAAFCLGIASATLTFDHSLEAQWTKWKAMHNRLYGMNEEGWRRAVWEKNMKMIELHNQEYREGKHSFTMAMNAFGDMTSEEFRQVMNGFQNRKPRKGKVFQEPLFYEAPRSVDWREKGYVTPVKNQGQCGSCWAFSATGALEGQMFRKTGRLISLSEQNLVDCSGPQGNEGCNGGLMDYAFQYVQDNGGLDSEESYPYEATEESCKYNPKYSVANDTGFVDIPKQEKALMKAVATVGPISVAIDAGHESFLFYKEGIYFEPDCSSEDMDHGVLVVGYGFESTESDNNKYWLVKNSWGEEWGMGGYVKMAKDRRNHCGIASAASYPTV
Aurora kinase B, sequence (Q96GD4 whole entry): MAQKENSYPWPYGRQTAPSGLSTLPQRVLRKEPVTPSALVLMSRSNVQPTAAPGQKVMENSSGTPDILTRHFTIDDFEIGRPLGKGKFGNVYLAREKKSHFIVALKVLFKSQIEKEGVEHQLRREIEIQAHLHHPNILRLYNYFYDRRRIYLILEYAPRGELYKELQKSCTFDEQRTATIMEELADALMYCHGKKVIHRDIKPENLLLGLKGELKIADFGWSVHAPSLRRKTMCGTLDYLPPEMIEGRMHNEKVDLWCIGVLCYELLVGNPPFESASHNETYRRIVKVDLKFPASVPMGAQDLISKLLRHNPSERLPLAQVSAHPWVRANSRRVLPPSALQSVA
Aspartyl aminopeptidase, sequence (Q8I2J3 whole entry): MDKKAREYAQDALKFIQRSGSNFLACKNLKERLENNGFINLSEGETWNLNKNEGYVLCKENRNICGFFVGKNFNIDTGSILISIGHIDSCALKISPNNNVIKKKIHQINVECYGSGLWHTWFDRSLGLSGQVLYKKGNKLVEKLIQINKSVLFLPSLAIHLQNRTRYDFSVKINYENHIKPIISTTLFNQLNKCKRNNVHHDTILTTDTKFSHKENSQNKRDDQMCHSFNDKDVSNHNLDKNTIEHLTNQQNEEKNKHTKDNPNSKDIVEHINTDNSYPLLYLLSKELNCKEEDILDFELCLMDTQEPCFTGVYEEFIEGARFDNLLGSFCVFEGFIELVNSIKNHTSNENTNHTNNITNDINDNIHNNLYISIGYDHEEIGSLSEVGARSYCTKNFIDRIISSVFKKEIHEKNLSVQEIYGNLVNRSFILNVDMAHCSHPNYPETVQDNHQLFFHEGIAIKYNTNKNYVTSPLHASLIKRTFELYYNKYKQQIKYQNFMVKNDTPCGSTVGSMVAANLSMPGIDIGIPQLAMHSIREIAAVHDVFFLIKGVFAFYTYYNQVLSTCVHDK
DNA dC->dU-editing enzyme APOBEC-3A, sequence (P31941 whole entry): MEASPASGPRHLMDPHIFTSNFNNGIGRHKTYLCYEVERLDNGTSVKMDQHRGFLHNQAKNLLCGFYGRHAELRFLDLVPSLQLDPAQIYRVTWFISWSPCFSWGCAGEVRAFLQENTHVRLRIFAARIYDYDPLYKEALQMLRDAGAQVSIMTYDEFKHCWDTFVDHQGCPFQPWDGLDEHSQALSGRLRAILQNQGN

SMILES: Cc1ccc(-n2c(-c3ccco3)nc3nc4ccccc4nc32)cc1
- IC50 [1]: 24.1 µM (active)
- IC50 [2]: > 100 µM (inactive)
- IC50 [3]: 69 µM (active)

SMILES: CN(C)CC(=O)Nc1n[nH]c2cc(-c3cn(Cc4ccccc4)nn3)ccc12
- Ki [4]: 1 µM (active)
- Ki [5]: 3.16 µM (active)

SMILES: O=CN/C=C/c1cc(O)ccc1O [ERBSTATIN]
- IC50 [6]: 0.751 µM (active)
- IC50 [7]: 3.72 µM (active)
- GI50 [8]: 16.2 µM (inactive)
- IC50 [9]: > 59.6 µM (not active)
- IC50 [10]: 4.17 µM (active)
- GI50 [11]: 2.02 µM (inactive)
- GI50 [12]: 2.1 µM (inactive)

SMILES: Cc1ccc(NC(=O)c2cc3ccccc3oc2=O)cc1S(=O)(=O)N(C)C
- AC50 [13]: < 0.02 µM (active)
- AC50 [14]: 0.0893 µM (active)
- AC50 [15]: 0.03 µM (active)
- AC50 [16]: 0.011 µM (active)
- AC50 [17]: 1.29 µM (active)
- IC50 [18]: > 80 µM (inactive)
- EC50 [19]: < 0.16 µM (active)
- AC50 [20]: 0.00125 µM (active)

SMILES: O=C(c1cccc(N2CCNC2=O)c1)N1CCCC(Nc2cccc(F)c2)C1 (centres undefined)
- IC50 [21]: 9.83 µM (active)
- IC50 [22]: > 88.8 µM (inactive)
- IC50 [23]: > 66.2 µM (inactive)
- IC50 [24]: 0.922 µM (active)
- IC50 [25]: > 50 µM (inactive)
- IC50 [26]: > 49.7 µM (inactive)

SMILES: COc1ccc(Sc2cnn(Cc3cccc4ccccc34)c(=O)c2Cl)cc1
- IC50 [27]: 1.19 µM (active)
- IC50 [28]: 18.7 µM (inactive)

SMILES: NC(=O)c1ccc2c(ccn2-c2cccc(Cl)c2)c1
- Ki [29]: 3.98 µM (active)
- Ki [30]: 3.98 µM (active)

SMILES: Clc1cnc2[nH]c(SCc3nnc(-c4cccs4)o3)nc2c1
- IC50 [31]: 20.6 µM (inactive)
- IC50 [32]: > 99 µM (inactive)

SMILES: O=c1cc(-c2ccncc2)[nH]n1-c1ccc([N+](=O)[O-])cc1
- Ki [33]: 0.501 µM (active)
- Ki [34]: > 100 µM (inactive)

Source: ChEMBL document CHEMBL1201862, “PubChem BioAssay data set” (2004)
